{"source": "patent US20260207718A1", "about": "“METHODS FOR TREATING LATE ONSET POMPE DISEASE IN PEDIATRIC PATIENTS” (Amicus Therapeutics, Inc., priority 2022, published 2026)", "key": {"[1]": {"test_system": "LOPD population (ERT-naïve and ERT-experienced)", "assay": "Indirect treatment comparison, multi-level network meta regression (ML-NMR)", "set-up": "species or system human", "conditions": "base-case scenario, sensitivity analysis (RCT data only)", "protocol": "Moreover, a comparison of three randomized clinical trials (LOTS: alglucosidase alfa vs placebo; COMET: avalglucosidase alfa vs alglucosidase alfa; and PROPEL: cipaglucosidase alfa/miglustat vs alglucosidase alfa) share 6 MWD and % predicted FVC as key primary or secondary endpoints. Using patient-level data from the PROPEL randomized clinical trial (RCT) plus aggregate published data from other RCTs, Phase I/II and open label extension trials, a multi-level network meta-regression was conducted, adjusting for various baseline covariates including previous ERT duration. The base case scenario had covariates resembling the PROPEL population (naïve and ERT-experienced) and analyzed 6 MWD and FVC change from baseline at 52 weeks. […]\nA systematic literature review (SLR) was conducted to identify relevant published clinical studies of ERTs in LOPD. Outcomes assessed were change from baseline in 6-minute walking distance (6 MWD) (m) and in forced vital capacity (FVC; % predicted) at week 52, acknowledged by clinicians, HTA agencies and payers as key LOPD trial endpoints. […]\nA base-case scenario was evaluated in which all covariates were set to the target population of the PROPEL trial. […]"}, "Gaa KO mice [2]": {"test_system": "Gaa KO mice", "assay": "Co-administration of ATB200 and miglustat in Gaa KO mice (tissue glycogen, LAMP1, LC3, dysferlin)", "assay_type": "in vivo", "conditions": "FIG. 15B", "protocol": "The therapeutic effects of ATB200 and miglustat were evaluated and compared against those of Alglucosidase alfa in Gaa KO mice. For the study, male Gaa KO (3- to 4-month old) and age-matched wild-type (WT) mice were used. Alglucosidase alfa was administered via bolus tail vein intravenous (IV) injection. In the co-administration regimen, miglustat was administered via oral gavage (PO) 30 minutes prior to the IV injection of ATB200. Treatment was given biweekly. Treated mice were sacrificed after 14 days from the last administration and various tissues were collected for further analysis. Table 11 summarizes the study design:\nTissue glycogen content in tissues samples was determined using amyloglucosidase digestion, as discussed above.\nTissue samples were also analyzed for biomarker changes following the methods discussed in: Khanna R, et al. (2012), “The pharmacological chaperone AT2220 increases recombinant human acid α-glucosidase uptake and glycogen reduction in a mouse model of Pompe disease,” Plos One 7(7): e40776; and Khanna, R et al. (2014), “The Pharmacological Chaperone AT2220 Increases the Specific Activity and Lysosomal Delivery of Mutant Acid α-Glucosidase, and Promotes Glycogen Reduction in a Transgenic Mouse Model of Pompe Disease,” PLOS ONE 9(7): e102092."}, "[3]": {"test_system": "adult subjects with late-onset Pompe disease (LOPD)", "assay": "ATB200-03 (PROPEL) phase 3 trial", "conditions": "for absolute decline in percent-predicted FVC: 52 weeks; for mean change in total GSGC score: baseline to week 52, overall population", "source_text": "(§1) Efficacy assessments (i.e., functional assessments) included evaluation of ambulatory function (6 MWT), motor function tests (Gait, Stair, Gower, and Chair maneuver (GSGC) test and Timed Up and Go (TUG) test), muscle strength (manual muscle testing and quantitative muscle testing), and pulmonary function tests (FVC, SVC, MIP, MEP, and SNIP).\n(§2) The primary efficacy endpoint was the change from baseline to Week 52 in 6 MWD.\n(§3) Key secondary efficacy endpoints in a pre-specified hierarchical order of importance were as follows. These secondary endpoints were analyzed using analysis of covariance (ANCOVA) model with last observation carried forward (ITT LOCF). • change from baseline to Week 52 in sitting FVC (% predicted) • change from baseline to Week 52 in the manual muscle test score for the lower extremities • change from baseline to Week 52 in the total score for the PROMIS—physical function • change from baseline to Week 52 in the total score for the PROMIS—fatigue • change from baseline to Week 52 in GSGC total score\n(§4) PROPEL was a 52-week, double-blind randomized global study designed to assess the efficacy, safety and tolerability of AT-GAA compared to the current standard of care, alglucosidase alfa, an enzyme replacement therapy (ERT).\n(§5) Patients enrolled in PROPEL were randomized 2:1 so that for every two patients randomized to be treated with AT-GAA, one was randomized to be treated with alglucosidase alfa."}, "[4]": {"test_system": "adult subjects with late-onset Pompe disease (LOPD)", "conditions": "in vivo", "source_text": "as §1, §2, §3, §4, §5"}, "[5]": {"test_system": "subjects with late-onset Pompe disease (LOPD)", "conditions": "cited from earlier work"}, "Gaa KO mice [6]": {"test_system": "Gaa KO mice", "assay": "Single fiber analysis (LAMP1/LC3) of muscle fibers from Gaa KO mice", "assay_type": "in vivo", "excerpt": "FIG. 17 depicts co-immunofluorescent staining of LAMP1 (green) (see for example, “B”) and LC3 (red) (see, for example, “A”) in single fibers isolated from the white gastrocnemius of Gaa KO mice treated with a vehicle, alglucosidase alfa, or ATB200. “C” depicts clearance of autophagic debris and absence of enlarged lysosome. A minimum of 30 fibers were examined from each animal.\nAs a result, a significant portion of muscle fibers analyzed (36-60%) from ATB200-treated mice appeared normal or near-normal."}, "CIMPR": {"target": "CIMPR (Homo sapiens, UniProt P11717)", "sequence (P11717 41-2491, species assumed)": "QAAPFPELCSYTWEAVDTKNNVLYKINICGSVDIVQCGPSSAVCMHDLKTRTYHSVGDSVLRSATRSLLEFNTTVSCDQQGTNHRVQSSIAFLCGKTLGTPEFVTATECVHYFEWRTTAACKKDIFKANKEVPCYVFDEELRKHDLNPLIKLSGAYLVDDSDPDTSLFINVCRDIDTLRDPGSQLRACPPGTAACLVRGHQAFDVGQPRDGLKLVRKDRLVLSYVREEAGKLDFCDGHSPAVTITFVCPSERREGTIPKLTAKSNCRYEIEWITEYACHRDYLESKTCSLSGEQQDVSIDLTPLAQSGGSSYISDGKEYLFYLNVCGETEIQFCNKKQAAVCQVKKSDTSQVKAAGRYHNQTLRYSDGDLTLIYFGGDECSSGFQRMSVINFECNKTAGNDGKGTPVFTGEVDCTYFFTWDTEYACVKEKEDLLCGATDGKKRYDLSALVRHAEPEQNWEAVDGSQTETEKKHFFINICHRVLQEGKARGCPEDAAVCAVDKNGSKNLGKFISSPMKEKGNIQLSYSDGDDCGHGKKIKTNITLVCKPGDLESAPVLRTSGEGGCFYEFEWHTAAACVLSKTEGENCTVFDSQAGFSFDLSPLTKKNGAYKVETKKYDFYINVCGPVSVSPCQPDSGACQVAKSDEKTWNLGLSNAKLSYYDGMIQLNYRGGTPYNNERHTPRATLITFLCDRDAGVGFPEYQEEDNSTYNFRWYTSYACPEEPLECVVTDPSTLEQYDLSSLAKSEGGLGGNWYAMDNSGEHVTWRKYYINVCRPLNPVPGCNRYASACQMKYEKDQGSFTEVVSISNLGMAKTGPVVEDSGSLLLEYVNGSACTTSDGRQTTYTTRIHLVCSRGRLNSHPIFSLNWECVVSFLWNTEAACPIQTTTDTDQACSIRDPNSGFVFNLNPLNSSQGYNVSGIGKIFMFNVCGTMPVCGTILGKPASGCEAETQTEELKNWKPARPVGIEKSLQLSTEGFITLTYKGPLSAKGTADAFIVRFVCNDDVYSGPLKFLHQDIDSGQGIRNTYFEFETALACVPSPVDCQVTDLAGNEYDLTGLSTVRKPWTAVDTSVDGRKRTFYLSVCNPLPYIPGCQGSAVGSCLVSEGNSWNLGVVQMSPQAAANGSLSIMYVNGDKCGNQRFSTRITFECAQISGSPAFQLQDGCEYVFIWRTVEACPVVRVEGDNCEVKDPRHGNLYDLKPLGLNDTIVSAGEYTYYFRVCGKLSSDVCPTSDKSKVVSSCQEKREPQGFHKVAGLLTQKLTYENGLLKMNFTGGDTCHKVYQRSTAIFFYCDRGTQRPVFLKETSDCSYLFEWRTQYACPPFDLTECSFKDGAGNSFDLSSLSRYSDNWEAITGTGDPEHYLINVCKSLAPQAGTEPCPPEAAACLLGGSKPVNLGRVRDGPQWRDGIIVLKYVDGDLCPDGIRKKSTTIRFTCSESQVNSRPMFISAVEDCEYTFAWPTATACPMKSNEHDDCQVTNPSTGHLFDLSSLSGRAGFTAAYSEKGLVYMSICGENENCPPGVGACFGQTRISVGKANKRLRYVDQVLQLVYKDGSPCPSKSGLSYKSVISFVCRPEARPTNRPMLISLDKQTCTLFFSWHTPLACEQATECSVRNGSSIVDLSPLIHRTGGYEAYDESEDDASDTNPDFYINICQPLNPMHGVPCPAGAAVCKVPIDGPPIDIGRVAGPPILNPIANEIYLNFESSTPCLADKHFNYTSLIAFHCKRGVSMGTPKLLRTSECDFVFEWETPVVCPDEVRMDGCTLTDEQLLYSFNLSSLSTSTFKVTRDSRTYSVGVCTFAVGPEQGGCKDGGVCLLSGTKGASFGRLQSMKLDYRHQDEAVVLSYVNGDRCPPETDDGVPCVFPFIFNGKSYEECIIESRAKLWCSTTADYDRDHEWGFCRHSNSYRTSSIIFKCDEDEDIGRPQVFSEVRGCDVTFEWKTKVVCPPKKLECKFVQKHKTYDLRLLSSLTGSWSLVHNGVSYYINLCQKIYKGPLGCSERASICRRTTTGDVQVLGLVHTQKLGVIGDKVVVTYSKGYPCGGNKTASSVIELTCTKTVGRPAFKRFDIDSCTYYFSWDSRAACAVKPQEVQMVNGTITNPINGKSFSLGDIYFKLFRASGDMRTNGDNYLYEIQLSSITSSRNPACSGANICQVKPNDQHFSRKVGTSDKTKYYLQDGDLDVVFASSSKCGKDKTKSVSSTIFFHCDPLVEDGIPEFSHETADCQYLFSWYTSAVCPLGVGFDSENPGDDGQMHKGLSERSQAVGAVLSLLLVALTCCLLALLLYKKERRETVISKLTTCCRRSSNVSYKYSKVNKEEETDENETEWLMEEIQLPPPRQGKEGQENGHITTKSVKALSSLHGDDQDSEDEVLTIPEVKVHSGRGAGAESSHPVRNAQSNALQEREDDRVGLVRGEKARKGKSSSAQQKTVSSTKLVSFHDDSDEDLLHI", "assay": "CIMPR affinity chromatography (bound vs unbound rhGAA by GAA activity)", "assay_type": "binding", "excerpt": "Multiple batches of the rhGAA according to the disclosure were produced in shake flasks and in perfusion bioreactors using CHO cell line GA-ATB200, the product of which is referred to as “ATB200.” Weak anion exchange (“WAX”) liquid chromatography was used to fractionate ATB200 rhGAA according to terminal phosphate and sialic acid. Elution profiles were generated by eluting the ERT with increasing amount of salt. The profiles were monitored by UV (A280 nm).\nTo evaluate the ability of the conventional rhGAAs in MYOZYME® and LUMIZYME® to interact with the CIMPR, the two conventional rhGAA preparations were injected onto a CIMPR affinity column (which binds rhGAA having M6P groups) and the flow through collected. The bound material was eluted with a free M6 gradient. Fractions were collected in 96-well plate and GAA activity assayed by 4MU-α-glucosidase substrate. The relative amounts of unbound (flow through) and bound (M6P eluted) rhGAA were determined based on GAA activity and reported as the fraction of total enzyme. […] Indeed, only 27% of the rhGAA in MYOZYME® and 22% of the rhGAA in LUMIZYME® contained M6P that can be productive to target it to the CIMPR on muscle cells."}, "pediatric LOPD patient": {"test_system": "pediatric LOPD patient", "conditions": "(failed); 20 mg/kg Q2W (M)"}}, "data": [{"substance": "alglucosidase alfa", "values": [{"measurement": "relative effect for 6MWT and FVC", "setting": "[1]", "result": "numerically favourable versus placebo"}, {"measurement": "LC3 II level (western blot) / effect on autophagy", "setting": "Gaa KO mice [2]", "result": "modest"}, {"measurement": "absolute decline in percent-predicted FVC", "setting": "[3]; ERT switch patients", "result": 4.0, "unit": "%"}, {"measurement": "FVC, CFBL at Week 52", "setting": "[3]; ERT switch population", "result": "−4.0", "unit": "% predicted"}, {"measurement": "6MWD, CFBL at Week 52", "setting": "[3]; ERT switch population (n=95)", "result": 0.0, "unit": "m"}, {"measurement": "6MWD, CFBL at Week 52", "setting": "[3]; ERT treatment naive population", "result": 38, "unit": "m"}, {"measurement": "FVC, CFBL at Week 52", "setting": "[3]; ERT treatment naive population", "result": "−3.6", "unit": "% predicted"}, {"measurement": "6MWD, CFBL at Week 52", "setting": "[3]; ERT treatment naive population, listed as Alglucosidase alfa", "result": "+38.3 m"}, {"measurement": "mean urinary Glc4 concentration", "setting": "[3]; ERT-experienced patients, Week 52 (baseline 4.6 ATB200/miglustat, 7.2 alglucosidase alfa with placebo)", "result": 9.1, "unit": "mmol/mol"}, {"measurement": "mean change in CK (creatine kinase)", "setting": "[3]; after 52 weeks", "result": "+15.6%"}, {"measurement": "mean change (SD) in MMT score for lower extremities", "setting": "[3]; baseline to week 52", "result": "0.9 (2.58)"}, {"measurement": "mean change in total GSGC score", "setting": "[3]", "result": "worsening"}, {"measurement": "mean change in total GSGC score", "setting": "[3]; listed as alglucosidase alfa and placebo", "result": "0.77 (1.8)"}, {"measurement": "absolute decline in percent-predicted FVC", "setting": "[3]; combined population", "result": 4.0, "unit": "%"}, {"measurement": "mean change of urine Hex-4", "setting": "[3]; combined population, after 52 weeks", "result": "+11.0%"}, {"measurement": "6MWD, CFBL at Week 52", "setting": "[3]; overall ERT switch and ERT naïve population", "result": 7, "unit": "m"}, {"measurement": "6MWD, CFBL at Week 52", "setting": "[3]; overall ERT switch and ERT naïve population, listed as Alglucosidase alfa", "result": "+7.2 m"}, {"measurement": "FVC, CFBL at Week 52", "setting": "[3]; overall population", "result": "−4.0", "unit": "% predicted"}, {"measurement": "participants with infusion/injection associated reactions (IARs)", "setting": "[4]", "result": 26, "unit": "%"}, {"measurement": "patients who discontinued treatment due to an adverse event", "setting": "[4]", "result": 2.6, "unit": "%"}, {"measurement": "subjects who did not show an initial improvement during treatment", "setting": "[5]; 368 subjects with LOPD from published studies", "result": "> 30", "unit": "%"}, {"measurement": "duration of improvements in initial responders", "setting": "[5]; longer-term studies", "result": "approximately 2 years"}, {"measurement": "Fibers with Autophagy Buildup", "setting": "Gaa KO mice [6]", "result": ">90", "unit": "%"}, {"measurement": "Fibers with Normal or Near-normal Appearance", "setting": "Gaa KO mice [6]", "result": "<10", "unit": "%"}]}, {"substance": "MYOZYME®: conventional rhGAA product containing alglucosidase alfa (Sanofi Genzyme)", "values": [{"measurement": "rhGAA that bound to the CIMPR", "setting": "CIMPR", "result": 27, "unit": "%"}, {"measurement": "rhGAA that did not bind to the CIMPR (fraction of total enzyme)", "setting": "CIMPR", "result": 73, "unit": "%"}, {"measurement": "6MWT", "setting": "pediatric LOPD patient", "result": 44.2, "unit": "m"}, {"measurement": "lysosome size and autophagic buildup compared to vehicle-treated mice", "setting": "Gaa KO mice [6]; FIG. 17", "result": "did not show any significant difference"}]}]}
